Laboratory results: US5247084A, “Derivatives of p-guanidinobenzoic acid” (priority 1985, dated 1993)
Where a name gives a salt, the structure may show the parent alone. Read-outs that look alike come from different tables or passages of the source.

Tests used:
[1] = acute toxicity test in mice by intravenous administration; conditions: mouse, in vivo
[2] = target: T1, elastase from human neutrophil (Homo sapiens, UniProt P08246); assay: Inhibitory effect on elastase (spectrophotometric method, substrate Suc-Ala-Pro-Ala-pNA); format: biochemical
T1 construct: using elastase from human neutrophil; from tissue; host or cells: human neutrophil
T1 sequence (P08246 30-247 limits assumed): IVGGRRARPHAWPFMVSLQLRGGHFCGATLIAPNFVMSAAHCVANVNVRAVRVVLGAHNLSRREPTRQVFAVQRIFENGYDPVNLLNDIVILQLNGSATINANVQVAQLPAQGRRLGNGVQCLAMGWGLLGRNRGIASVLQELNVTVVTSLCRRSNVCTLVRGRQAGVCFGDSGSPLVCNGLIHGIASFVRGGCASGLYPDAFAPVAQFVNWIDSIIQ
Experimental: The test was carried out by the slight modification of the method of Bieth et al [see Biochem. Med., 75, 350 (1974)] using elastase from human neutrophil.
The reaction mixture consisted of 1 mM Suc-Ala-Pro-Ala-pNA (dissolving in N-methylpyrrolidone to the concentration of 100 mM, and then adding 1/100 amount of the solution to the reaction mixture.), 0.1 M buffer solution of tris-hydrochloric acid (pH 8.0), 0.2 M sodium chloride aqueous solution, the sample solution of various concentrations and enzyme solution in a final volume of 1.0 ml was incubated at 37° C. for 30 minutes.
The reaction was stopped by the addition of 100 μl of 50% acetic acid into the reaction mixture, and then p-nitro anilide released was measured on absorbance of 405 nm.
Inhibition percentage of the test compounds was caliculated by the following equation: [formula]

[3] = Y represents an oxygen atom, pH 8.0, 37° C., 30 minutes, read-out: Inhibitory Effect on Elastase, IC50
[4] = Y represents a sulfur atom, pH 8.0, 37° C., 30 minutes, read-out: Elastase Inhibitory Effect, IC50
[5] = at 50 μg/ml, Y represents a sulfur atom, read-out: Elastase Inhibitory Effect, Inhibition %

CCS(=O)(=O)Oc1cc(Cl)cc(SC(=O)c2ccc(NC(=N)N)cc2)c1
LD50 [1]: 50 to 150 mg/kg

N=C(N)Nc1ccc(C(=O)Oc2cc(Cl)ccc2Cl)cc1 [Example 37]
IC50 [2, 3]: 1.1 µM
inhibition at 100 µM ([2]; Y represents an oxygen atom): 85.8%
LD50 [1]: 50 to 150 mg/kg

N=C(N)Nc1ccc(C(=O)Sc2ccccc2)cc1 [Example 124]
IC50 [2, 4]: 2.1 µM
inhibition at 50 µg/mL [2, 5]: 94%
LD50 [1]: 50 to 150 mg/kg

CCN(CC)S(=O)(=O)c1ccc(OC(=O)c2ccc(NC(=N)N)cc2)cc1Cl [Example 94]
IC50 [2, 3]: 22 µM
LD50 [1]: 50 to 150 mg/kg

CS(=O)(=O)O.N=C(N)Nc1ccc(C(=O)Oc2cc(O)cc(Cl)c2)cc1 [Example 112, p-guanidinobenzoic acid 3-chloro-5-hydroxyphenyl ester methanesulfonate]
IC50 [2, 3]: 8.3 µM
LD50 [1]: 50 to 150 mg/kg

CC(=O)O.CCS(=O)(=O)Oc1cc(Cl)cc(OC(=O)c2ccc(NC(=N)N)cc2)c1 [Example 75, p-guanidinobenzoic acid 3-chloro-5-ethanesulfonyloxyphenyl ester acetate]
IC50 [2, 3]: 1.1 µM
LD50 [1]: 50 to 150 mg/kg

N=C(N)Nc1ccc(C(=O)Sc2cc(O)cc(Cl)c2)cc1 [3-chloro-5-hydroxy (Y = sulfur atom)]
LD50 [1]: 50 to 150 mg/kg

CCN(CC)S(=O)(=O)c1ccc(SC(=O)c2ccc(NC(=N)N)cc2)cc1Cl
LD50 [1]: 50 to 150 mg/kg

N=C(N)Nc1ccc(C(=O)Sc2ccc(Cl)c(Cl)c2)cc1 [Example 137]
inhibition at 50 µg/mL [2, 5]: 35.5%

COC(=O)c1cc(OC(=O)c2ccc(NC(=N)N)cc2)cc(OC(=O)c2ccc(NC(=N)N)cc2)c1 [Example 67]
IC50 [2, 3]: 70 µM

N=C(N)Nc1ccc(C(=O)Oc2cc(OC(=O)c3ccc(NC(=N)N)cc3)cc(C(=O)NCc3ccccc3)c2)cc1 [Example 85]
inhibition at 100 µM ([2]; Y represents an oxygen atom): 27%

CCN(CC)S(=O)(=O)c1ccc(OC(=O)c2ccc(NC(=N)N)cc2)c(F)c1 [Example 96]
IC50 [2, 3]: 61 µM

CN(C)C(=O)c1cccc(OC(=O)c2ccc(NC(=N)N)cc2)c1 [Example 80]
inhibition at 100 µM ([2]; Y represents an oxygen atom): 30%

N=C(N)Nc1ccc(C(=O)Oc2ccc(S(=O)(=O)N3CCCC3)cc2)cc1 [Example 98]
IC50 [2, 3]: 77 µM

N=C(N)Nc1ccc(C(=O)Oc2ccc(S(=O)(=O)N3CCOCC3)cc2)cc1 [Example 101]
inhibition at 100 µM ([2]; Y represents an oxygen atom): 34.9%

N=C(N)Nc1ccc(C(=O)Oc2cc(Cl)cc(OC(=O)c3ccc(NC(=N)N)cc3)c2)cc1 [Example 68]
IC50 [2, 3]: 0.6 µM

CNC(=O)c1cc(OC(=O)c2ccc(NC(=N)N)cc2)cc(OC(=O)c2ccc(NC(=N)N)cc2)c1 [Example 82]
inhibition at 100 µM ([2]; Y represents an oxygen atom): 38%

N=C(N)Nc1ccc(C(=O)Sc2ccccc2Br)cc1 [Example 138]
IC50 [2, 4]: 1.6 µM
inhibition at 50 µg/mL [2, 5]: 83.1%

N=C(N)Nc1ccc(C(=O)Oc2cc(NC(=N)N)ccc2Cl)cc1 [Example 118]
IC50 [2, 3]: 47 µM

COc1cc(O)cc(OC(=O)c2ccc(NC(=N)N)cc2)c1 [Example 110]
IC50 [2, 3]: 20 µM

N=C(N)Nc1ccc(C(=O)Oc2cc(Cl)cc(CO)c2)cc1 [Example 150, P-guanidinobenzoic acid 3-chloro-5-hydroxymethylphenylester acetate]
IC50 [2, 3]: 4.5 µM

Cc1cccc(OC(=O)c2ccc(NC(=N)N)cc2)c1C [Example 4]
inhibition at 100 µM ([2]; Y represents an oxygen atom): 5.9%

CC(=O)Oc1cc(Cl)cc(OC(=O)c2ccc(NC(=N)N)cc2)c1 [Example 61]
IC50 [2, 3]: 0.48 µM

CC(=O)Oc1cccc(OC(=O)c2ccc(NC(=N)N)cc2)c1 [Example 59]
inhibition at 100 µM ([2]; Y represents an oxygen atom): 25.7%

N=C(N)Nc1ccc(C(=O)Oc2cc(OC(=O)c3ccc(NC(=N)N)cc3)cc(OC(=O)c3ccc(NC(=N)N)cc3)c2)cc1 [Example 65]
inhibition at 100 µM ([2]; Y represents an oxygen atom): 38%

N=C(N)Nc1ccc(C(=O)Sc2c(Cl)cccc2Cl)cc1 [Example 136]
IC50 [2, 4]: 45 µM
inhibition at 50 µg/mL [2, 5]: 64.5%

CCCOc1ccc(C(C)=O)c(OC(=O)c2ccc(NC(=N)N)cc2)c1 [Example 50]
IC50 [2, 3]: 54 µM

N=C(N)Nc1ccc(C(=O)Sc2ccc(Cl)cc2)cc1 [Example 134]
inhibition at 50 µg/mL [2, 5]: 69.5%

CCc1cccc(OC(=O)c2ccc(NC(=N)N)cc2)c1 [Example 6]
inhibition at 100 µM ([2]; Y represents an oxygen atom): 39.6%

CCC(C)OC(=O)c1cccc(OC(=O)c2ccc(NC(=N)N)cc2)c1Cl (stereo not shown) [Example 22]
IC50 [2, 3]: 2.6 µM

Cc1ccc(OC(=O)c2ccc(NC(=N)N)cc2)cc1 [Example 4-methyl, reference compound]
inhibition at 100 µM ([2]; Y represents an oxygen atom): 28.4%

N=C(N)Nc1ccc(C(=O)Oc2cc(O)cc(C(=O)NCc3ccccc3)c2)cc1 [Example 115]
IC50 [2, 3]: 88 µM

COC(=O)c1ccc(Cl)cc1OC(=O)c1ccc(NC(=N)N)cc1 [Example 17]
IC50 [2, 3]: 5.8 µM
inhibition at 100 µM ([2]; Y represents an oxygen atom): 92.2%

N=C(N)Nc1ccc(C(=O)Oc2cc(Cl)ccc2C(=O)O)cc1 [Example 149]
IC50 [2, 3]: 60 µM

CCN(CC)S(=O)(=O)c1cc(Cl)cc(OC(=O)c2ccc(NC(=N)N)cc2)c1 [Example 95]
IC50 [2, 3]: 4.8 µM

N=C(N)Nc1ccc(C(=O)Oc2cccc(C(=O)O)c2Cl)cc1 [Example 147, P-guanidinobenzoic acid 3-carboxy-2-chlorophenylester hydrobromide]
IC50 [2, 3]: 20 µM

N=C(N)Nc1ccc(C(=O)Sc2cc(Cl)ccc2Cl)cc1 [Example 135, p-guanidinobenzoic acid 2,5-dichlorothiophenyl ester methanesulfonate]
IC50 [2, 4]: 0.1 µM
inhibition at 50 µg/mL [2, 5]: 92.1%
LD50 [1]: 50 to 150 mg/kg

Cc1ccccc1OC(=O)c1ccc(NC(=N)N)cc1 [Example 2]
inhibition at 100 µM ([2]; Y represents an oxygen atom): 20.2%

CCNC(=O)c1cc(OC(=O)c2ccc(NC(=N)N)cc2)cc(C(=O)NCC)c1 [Example 83]
inhibition at 100 µM ([2]; Y represents an oxygen atom): 28%

COC(=O)Cc1cccc(OC(=O)c2ccc(NC(=N)N)cc2)c1Cl [Example 24]
IC50 [2, 3]: 50 µM

CC(C)S(=O)(=O)Oc1cc(Cl)cc(OC(=O)c2ccc(NC(=N)N)cc2)c1 [Example 76]
IC50 [2, 3]: 1.1 µM

COCc1cc(OC(=O)c2ccc(NC(=N)N)cc2)cc(OC(=O)c2ccc(NC(=N)N)cc2)c1 [Example 13]
IC50 [2, 3]: 9.1 µM
inhibition at 100 µM ([2]; Y represents an oxygen atom): 89%

COc1cc(OC(=O)c2ccc(NC(=N)N)cc2)cc(C(=O)N2CCS(=O)(=O)C2)c1 [Example 122]
IC50 [2, 3]: 12 µM

N=C(N)Nc1ccc(C(=O)Oc2ccccc2)cc1 [hydrogen, reference compound]
inhibition at 50 µg/mL ([2]; at 50 μg/ml (footnote 2), Y represents an oxygen atom, read-out: Inhibitory Effect on Elastase, Inhibition %): 54.6%
LD50 [1]: 50 to 150 mg/kg

CCNC(=O)Oc1cc(Cl)cc(OC(=O)c2ccc(NC(=N)N)cc2)c1 [Example 88]
IC50 [2]: 1.1 µM

N=C(N)Nc1ccc(C(=O)Oc2cc(C(=O)O)cc(C(=O)O)c2)cc1 [Example 148]
inhibition at 100 µM ([2]; Y represents an oxygen atom): 25%

COC(=O)Cc1ccc(OC(=O)c2ccc(NC(=N)N)cc2)c(Cl)c1 [Example 25]
inhibition at 100 µM ([2]; Y represents an oxygen atom): 40%
